Several values for one entry are separate records, joined by “and”; a condition that tells them apart may be missing. Equal entries are not always repeated.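 Test compounds were applied to cells in 96-well plates for 48 hours at 5 doses. GI50 is the concentration that inhibits growth by half. TGI is the concentration that stops growth completely.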
How the values were obtained:
Assay in all cases: NCI anticancer screen, dose series, 48 h
DLD-1 colon = system: DLD-1 colon
DMS 114 small cell lung = system: DMS 114 small cell lung
DMS 273 small cell lung = system: DMS 273 small cell lung
M19-MEL melanoma = system: M19-MEL melanoma
RXF-631 renal = system: RXF-631 renal
SNB-78 CNS = system: SNB-78 CNS
XF 498 CNS = system: XF 498 CNS
MDA-N = system: MDA-N
HOP-18 NSCLC = system: HOP-18 NSCLC

SMILES: CCOC(=O)c1oc2c(OC)ccc3c2c1CCC3
- TGI (DLD-1 colon): > 100 µM
- TGI (DMS 114 small cell lung): > 100 µM
- TGI (DMS 273 small cell lung): > 100 µM
- TGI (M19-MEL melanoma): > 100 µM
- TGI (RXF-631 renal): > 100 µM
- TGI (SNB-78 CNS): > 100 µM
- TGI (XF 498 CNS): > 100 µM

SMILES: CC[C@@]1(O)C(=O)OCc2c1cc1n(c2=O)Cc2cc3cc(Cl)ccc3nc2-1
- GI50 (DLD-1 colon): 0.108 µM and 0.346 µM
- TGI (DLD-1 colon): > 100 µM
- GI50 (DMS 114 small cell lung): < 0.001 µM
- GI50 (DMS 273 small cell lung): < 0.001 µM
- TGI (DMS 273 small cell lung): 0.0211 µM and 0.14 µM
- GI50 (M19-MEL melanoma): 0.0167 µM and 0.0195 µM
- TGI (M19-MEL melanoma): 0.224 µM and 0.19 µM
- GI50 (MDA-N): 0.0286 µM
- TGI (MDA-N): 0.374 µM
- GI50 (SNB-78 CNS): 0.0711 µM and 0.0581 µM

SMILES: O=C1/C(=C/c2cccnc2)SC(=S)N1Cc1ccco1
- TGI (MDA-N): 6.29 µM

SMILES: N#CCc1c(F)c(F)c(F)c(F)c1F
- TGI (MDA-N): > 100 µM

SMILES: c1ccc2c(c1)[nH]c1cnc3c4ncccc4[nH]c3c12
- TGI (DLD-1 colon): > 100 µM
- TGI (DMS 114 small cell lung): > 100 µM
- TGI (DMS 273 small cell lung): > 100 µM
- TGI (M19-MEL melanoma): > 100 µM
- TGI (SNB-78 CNS): > 100 µM
- TGI (XF 498 CNS): > 100 µM

SMILES: O=C1C=CC2(CCCCCCC2=O)CC1 (stereo unspecified)
- TGI (DLD-1 colon): > 100 µM
- TGI (DMS 273 small cell lung): > 100 µM
- TGI (HOP-18 NSCLC): > 100 µM
- TGI (M19-MEL melanoma): > 100 µM
- TGI (SNB-78 CNS): > 100 µM

SMILES: Oc1ccc2ccccc2c1CCc1c(O)ccc2ccccc12
- TGI (MDA-N): 27.6 µM

SMILES: O=C(CCC(=O)Nc1ccccc1C(F)(F)F)N/N=C1\C(=N\NC(=O)CCC(=O)Nc2ccccc2C(F)(F)F)C(c2ccc3c(c2)OCO3)Oc2ccccc21 (stereo unspecified)
- TGI (DLD-1 colon): > 100 µM
- TGI (DMS 114 small cell lung): > 22.3 µM
- TGI (DMS 273 small cell lung): > 100 µM
- TGI (HOP-18 NSCLC): > 100 µM
- TGI (M19-MEL melanoma): > 100 µM
- TGI (RXF-631 renal): > 100 µM
- TGI (SNB-78 CNS): > 100 µM
- TGI (XF 498 CNS): > 87.6 µM

SMILES: Nc1n[n+]([O-])c2cc([N+](=O)[O-])ccc2[n+]1[O-]
- TGI (MDA-N): 4.93 µM

SMILES: C[C@H]1CCC/C=C/C2CC(OC(=O)CN(C)C)CC2C(OC(=O)CN(C)C)/C=C/C(=O)O1 (stereo partly specified)
- GI50 (DLD-1 colon): 0.443 µM
- TGI (DLD-1 colon): > 37.1 µM
- GI50 (DMS 114 small cell lung): 0.479 µM
- TGI (DMS 114 small cell lung): > 30.2 µM
- GI50 (DMS 273 small cell lung): 3.77 µM
- TGI (DMS 273 small cell lung): 27.7 µM
- GI50 (M19-MEL melanoma): 0.0406 µM
- TGI (M19-MEL melanoma): 0.211 µM
- GI50 (MDA-N): 0.427 µM
- TGI (MDA-N): > 100 µM
- GI50 (SNB-78 CNS): 0.227 µM
- TGI (SNB-78 CNS): > 100 µM
- GI50 (XF 498 CNS): 0.179 µM
- TGI (XF 498 CNS): 1.42 µM

SMILES: OCC1NC(COC2OC(CO)C(O)C(O)C2O)C(O)C(O)C1O (stereo unspecified)
- TGI (MDA-N): > 100 µM

SMILES: C/C=C1/CN2CCC34C(=C(C(=O)OC)C1CC23)Nc1ccc(O)cc14 (stereo unspecified)
- TGI (MDA-N): > 100 µM

SMILES: CCCCCC/C=C/C#CCCCCCCCC(=O)O
- TGI (MDA-N): > 100 µM

SMILES: COc1cc(/C=C/C(=O)c2cccc3ccccc23)cc(OC)c1OC
- TGI (DMS 273 small cell lung): 23.9 µM
- TGI (HOP-18 NSCLC): 24.8 µM
- TGI (M19-MEL melanoma): 38.2 µM
- TGI (SNB-78 CNS): 12.8 µM
- TGI (XF 498 CNS): 20.5 µM

SMILES: Cc1cc(=O)oc2c(C3=NN(C=O)C(c4ccccc4)C3)c(O)ccc12 (stereo unspecified)
- TGI (DLD-1 colon): > 100 µM
- TGI (DMS 114 small cell lung): > 100 µM
- TGI (DMS 273 small cell lung): > 100 µM
- TGI (HOP-18 NSCLC): > 100 µM
- TGI (M19-MEL melanoma): > 100 µM
- TGI (MDA-N): > 100 µM
- TGI (RXF-631 renal): > 100 µM
- TGI (SNB-78 CNS): > 96 µM
- TGI (XF 498 CNS): 42.1 µM

SMILES: Cc1noc2cccc(O)c12
- TGI (DLD-1 colon): > 100 µM
- TGI (DMS 114 small cell lung): > 100 µM
- TGI (DMS 273 small cell lung): > 100 µM
- TGI (HOP-18 NSCLC): > 100 µM
- TGI (M19-MEL melanoma): > 100 µM
- TGI (SNB-78 CNS): > 100 µM
- TGI (XF 498 CNS): > 100 µM

SMILES: C=C1CCC2CC1C(C(=O)c1c[nH]c3ccccc13)=NC2(C)C (stereo unspecified)
- TGI (MDA-N): > 100 µM

SMILES: CC1=C(C(=O)Nc2cccc(Cl)c2)C(c2ccccc2O)C(C(=O)Nc2cccc(Cl)c2)=C(C)N1
- TGI (DLD-1 colon): 33 µM
- TGI (DMS 114 small cell lung): 54.6 µM
- TGI (M19-MEL melanoma): 40.6 µM
- TGI (SNB-78 CNS): 57.2 µM

SMILES: O/N=C1/CCC/C1=C\c1ccccc1
- TGI (DLD-1 colon): > 100 µM
- TGI (DMS 273 small cell lung): > 100 µM
- TGI (HOP-18 NSCLC): > 100 µM
- TGI (SNB-78 CNS): > 100 µM
- TGI (XF 498 CNS): > 100 µM

SMILES: Cc1ccccc1/C=C/c1csnn1
- TGI (DLD-1 colon): > 74.3 µM
- TGI (DMS 114 small cell lung): > 56 µM
- TGI (DMS 273 small cell lung): > 100 µM
- TGI (HOP-18 NSCLC): > 100 µM
- TGI (M19-MEL melanoma): > 100 µM
- TGI (RXF-631 renal): > 100 µM
- TGI (SNB-78 CNS): > 100 µM
- TGI (XF 498 CNS): > 100 µM

SMILES: O=C1OC(CC(=O)c2ccc(F)cc2)C(Cl)=C1Cl (stereo unspecified)
- TGI (DLD-1 colon): 47.4 µM
- TGI (DMS 114 small cell lung): > 100 µM
- TGI (HOP-18 NSCLC): 44.6 µM
- TGI (M19-MEL melanoma): > 100 µM
- TGI (SNB-78 CNS): > 100 µM
- TGI (XF 498 CNS): 46.8 µM

SMILES: NC1=NN(c2ccccc2)C(=O)C1C(=O)C(=O)Nc1ccc(Cl)cc1 (stereo unspecified)
- TGI (DLD-1 colon): > 100 µM
- TGI (DMS 114 small cell lung): > 100 µM
- TGI (DMS 273 small cell lung): > 100 µM
- TGI (HOP-18 NSCLC): > 100 µM
- TGI (M19-MEL melanoma): > 100 µM
- TGI (RXF-631 renal): > 100 µM
- TGI (SNB-78 CNS): > 100 µM

SMILES: CC(=O)OC1C[C@H]2C(OC(=O)c3ccccc3)C3C4(OC(C)=O)COC4C[C@H](OC(C)=O)[C@@]3(C)C(OC(C)=O)[C@H](OC(C)=O)C(=C1C)C2(C)C (stereo partly specified)
- TGI (DLD-1 colon): > 100 µM
- TGI (DMS 114 small cell lung): > 100 µM
- TGI (DMS 273 small cell lung): > 100 µM
- TGI (HOP-18 NSCLC): > 100 µM
- TGI (M19-MEL melanoma): > 100 µM
- TGI (SNB-78 CNS): > 100 µM
- TGI (XF 498 CNS): 63.8 µM
